What follows are compounds tested on Staphylococcus aureus (assay: Antimicrobial activity against methicillin-susceptible Staphylococcus aureus Smith by NCCLS method).
Assay type: functional

| Compound | MIC [µg/mL] |
| --- | --- |
| C=C[C@]1(C)C[C@@H](OC(=O)CN2CCN(C(=O)CCn3cnc4c(N5CCC(NCC)C5)ncnc43)CC2)[C@]2(C)[C@H](C)CC[C@]3(CCC(=O)[C@@H]32)[C@@H](C)[C@@H]1O.Cl.Cl (some centres not stated) | 0.25 |
| C=C[C@]1(C)C[C@@H](OC(=O)CN2CCN(C(=O)CCn3cnc4c(N5CCC(CN)CC5)ncnc43)CC2)[C@]2(C)[C@H](C)CC[C@]3(CCC(=O)[C@@H]32)[C@@H](C)[C@@H]1O.Cl.Cl | 0.25 |
| C=C[C@]1(C)C[C@@H](OC(=O)CN2CCN(C(=O)CCn3cnc4c(N5CC[C@@H](CNC)C5)ncnc43)CC2)[C@]2(C)[C@H](C)CC[C@]3(CCC(=O)[C@@H]32)[C@@H](C)[C@@H]1O.Cl.Cl | 0.25 |

These compounds were tested on Staphylococcus aureus (assay: Antimicrobial activity against methicillin-resistant Staphylococcus aureus KMP9).
Assay type: functional

| Compound | MIC [µg/mL] |
| --- | --- |
| C=C[C@]1(C)C[C@@H](OC(=O)CN2CCN(C(=O)CCn3cnc4c(N5CCC(NCC)C5)ncnc43)CC2)[C@]2(C)[C@H](C)CC[C@]3(CCC(=O)[C@@H]32)[C@@H](C)[C@@H]1O.Cl.Cl (some centres not stated) | 0.5 |
| C=C[C@]1(C)C[C@@H](OC(=O)CN2CCN(C(=O)CCn3cnc4c(N5CCC(CN)CC5)ncnc43)CC2)[C@]2(C)[C@H](C)CC[C@]3(CCC(=O)[C@@H]32)[C@@H](C)[C@@H]1O.Cl.Cl | 1 |
| C=C[C@]1(C)C[C@@H](OC(=O)CN2CCN(C(=O)CCn3cnc4c(N5CC[C@@H](CNC)C5)ncnc43)CC2)[C@]2(C)[C@H](C)CC[C@]3(CCC(=O)[C@@H]32)[C@@H](C)[C@@H]1O.Cl.Cl | 2 |

The compounds below were run on Streptococcus pneumoniae (assay: Antimicrobial activity against penicillin-susceptible Streptococcus pneumoniae ATCC 49619 by NCCLS method).
Assay type: functional

| Compound | MIC [µg/mL] |
| --- | --- |
| C=C[C@]1(C)C[C@@H](OC(=O)CN2CCN(C(=O)CCn3cnc4c(N5CCC(NCC)C5)ncnc43)CC2)[C@]2(C)[C@H](C)CC[C@]3(CCC(=O)[C@@H]32)[C@@H](C)[C@@H]1O.Cl.Cl (some centres not stated) | 0.125 |
| C=C[C@]1(C)C[C@@H](OC(=O)CN2CCN(C(=O)CCn3cnc4c(N5CCC(CN)CC5)ncnc43)CC2)[C@]2(C)[C@H](C)CC[C@]3(CCC(=O)[C@@H]32)[C@@H](C)[C@@H]1O.Cl.Cl | 0.125 |
| C=C[C@]1(C)C[C@@H](OC(=O)CN2CCN(C(=O)CCn3cnc4c(N5CC[C@@H](CNC)C5)ncnc43)CC2)[C@]2(C)[C@H](C)CC[C@]3(CCC(=O)[C@@H]32)[C@@H](C)[C@@H]1O.Cl.Cl | 0.125 |

What follows are compounds tested on Streptococcus pneumoniae (assay: Antimicrobial activity against penicillin-resistant Streptococcus pneumoniae KT2524 by NCCLS method).
Assay type: functional

| Compound | MIC [µg/mL] |
| --- | --- |
| C=C[C@]1(C)C[C@@H](OC(=O)CN2CCN(C(=O)CCn3cnc4c(N5CCC(NCC)C5)ncnc43)CC2)[C@]2(C)[C@H](C)CC[C@]3(CCC(=O)[C@@H]32)[C@@H](C)[C@@H]1O.Cl.Cl (some centres not stated) | 0.125 |
| C=C[C@]1(C)C[C@@H](OC(=O)CN2CCN(C(=O)CCn3cnc4c(N5CCC(CN)CC5)ncnc43)CC2)[C@]2(C)[C@H](C)CC[C@]3(CCC(=O)[C@@H]32)[C@@H](C)[C@@H]1O.Cl.Cl | 0.125 |
| C=C[C@]1(C)C[C@@H](OC(=O)CN2CCN(C(=O)CCn3cnc4c(N5CC[C@@H](CNC)C5)ncnc43)CC2)[C@]2(C)[C@H](C)CC[C@]3(CCC(=O)[C@@H]32)[C@@H](C)[C@@H]1O.Cl.Cl | 0.125 |

What follows are compounds tested on Streptococcus pyogenes (assay: Antimicrobial activity against Streptococcus pyogenes ATCC 112344 by NCCLS method).
Assay type: functional

| Compound | MIC [µg/mL] |
| --- | --- |
| C=C[C@]1(C)C[C@@H](OC(=O)CN2CCN(C(=O)CCn3cnc4c(N5CCC(NCC)C5)ncnc43)CC2)[C@]2(C)[C@H](C)CC[C@]3(CCC(=O)[C@@H]32)[C@@H](C)[C@@H]1O.Cl.Cl (some centres not stated) | 0.063 |
| C=C[C@]1(C)C[C@@H](OC(=O)CN2CCN(C(=O)CCn3cnc4c(N5CCC(CN)CC5)ncnc43)CC2)[C@]2(C)[C@H](C)CC[C@]3(CCC(=O)[C@@H]32)[C@@H](C)[C@@H]1O.Cl.Cl | 0.032 |
| C=C[C@]1(C)C[C@@H](OC(=O)CN2CCN(C(=O)CCn3cnc4c(N5CC[C@@H](CNC)C5)ncnc43)CC2)[C@]2(C)[C@H](C)CC[C@]3(CCC(=O)[C@@H]32)[C@@H](C)[C@@H]1O.Cl.Cl | 0.063 |

Each compound was assayed on Enterococcus faecium (assay: Antimicrobial activity against vancomycin-resistant Enterococcus faecium KU1778 by NCCLS method).
Assay type: functional

| Compound | MIC [µg/mL] |
| --- | --- |
| C=C[C@]1(C)C[C@@H](OC(=O)CN2CCN(C(=O)CCn3cnc4c(N5CCC(NCC)C5)ncnc43)CC2)[C@]2(C)[C@H](C)CC[C@]3(CCC(=O)[C@@H]32)[C@@H](C)[C@@H]1O.Cl.Cl (some centres not stated) | 0.25 |
| C=C[C@]1(C)C[C@@H](OC(=O)CN2CCN(C(=O)CCn3cnc4c(N5CCC(CN)CC5)ncnc43)CC2)[C@]2(C)[C@H](C)CC[C@]3(CCC(=O)[C@@H]32)[C@@H](C)[C@@H]1O.Cl.Cl | 0.25 |
| C=C[C@]1(C)C[C@@H](OC(=O)CN2CCN(C(=O)CCn3cnc4c(N5CC[C@@H](CNC)C5)ncnc43)CC2)[C@]2(C)[C@H](C)CC[C@]3(CCC(=O)[C@@H]32)[C@@H](C)[C@@H]1O.Cl.Cl | 0.5 |

These compounds were tested on Moraxella catarrhalis (assay: Antimicrobial activity against Moraxella catarrhalis K1209 by NCCLS method).
Assay type: functional

| Compound | MIC [µg/mL] |
| --- | --- |
| C=C[C@]1(C)C[C@@H](OC(=O)CN2CCN(C(=O)CCn3cnc4c(N5CCC(NCC)C5)ncnc43)CC2)[C@]2(C)[C@H](C)CC[C@]3(CCC(=O)[C@@H]32)[C@@H](C)[C@@H]1O.Cl.Cl (some centres not stated) | 0.125 |
| C=C[C@]1(C)C[C@@H](OC(=O)CN2CCN(C(=O)CCn3cnc4c(N5CCC(CN)CC5)ncnc43)CC2)[C@]2(C)[C@H](C)CC[C@]3(CCC(=O)[C@@H]32)[C@@H](C)[C@@H]1O.Cl.Cl | 0.125 |
| C=C[C@]1(C)C[C@@H](OC(=O)CN2CCN(C(=O)CCn3cnc4c(N5CC[C@@H](CNC)C5)ncnc43)CC2)[C@]2(C)[C@H](C)CC[C@]3(CCC(=O)[C@@H]32)[C@@H](C)[C@@H]1O.Cl.Cl | 0.125 |

What follows are compounds tested on Haemophilus influenzae (assay: Antimicrobial activity against Haemophilus influenzae TH13 by NCCLS method).
Assay type: functional

| Compound | MIC [µg/mL] |
| --- | --- |
| C=C[C@]1(C)C[C@@H](OC(=O)CN2CCN(C(=O)CCn3cnc4c(N5CCC(NCC)C5)ncnc43)CC2)[C@]2(C)[C@H](C)CC[C@]3(CCC(=O)[C@@H]32)[C@@H](C)[C@@H]1O.Cl.Cl (some centres not stated) | 4 |
| C=C[C@]1(C)C[C@@H](OC(=O)CN2CCN(C(=O)CCn3cnc4c(N5CCC(CN)CC5)ncnc43)CC2)[C@]2(C)[C@H](C)CC[C@]3(CCC(=O)[C@@H]32)[C@@H](C)[C@@H]1O.Cl.Cl | 2 |
| C=C[C@]1(C)C[C@@H](OC(=O)CN2CCN(C(=O)CCn3cnc4c(N5CC[C@@H](CNC)C5)ncnc43)CC2)[C@]2(C)[C@H](C)CC[C@]3(CCC(=O)[C@@H]32)[C@@H](C)[C@@H]1O.Cl.Cl | 2 |

The compounds below were run on Staphylococcus aureus (assay: Antimicrobial activity against methicillin-susceptible Staphylococcus aureus infected iv dosed mouse assessed as survival rate after 1 hr of infection).
Assay type: functional

| Compound | ED50 [mg/kg] |
| --- | --- |
| C=C[C@]1(C)C[C@@H](OC(=O)CN2CCN(C(=O)CCn3cnc4c(N5CCC(NCC)C5)ncnc43)CC2)[C@]2(C)[C@H](C)CC[C@]3(CCC(=O)[C@@H]32)[C@@H](C)[C@@H]1O.Cl.Cl (some centres not stated) | 2.21 |
| C=C[C@]1(C)C[C@@H](OC(=O)CN2CCN(C(=O)CCn3cnc4c(N5CCC(CN)CC5)ncnc43)CC2)[C@]2(C)[C@H](C)CC[C@]3(CCC(=O)[C@@H]32)[C@@H](C)[C@@H]1O.Cl.Cl | 1.51 |
| C=C[C@]1(C)C[C@@H](OC(=O)CN2CCN(C(=O)CCn3cnc4c(N5CC[C@@H](CNC)C5)ncnc43)CC2)[C@]2(C)[C@H](C)CC[C@]3(CCC(=O)[C@@H]32)[C@@H](C)[C@@H]1O.Cl.Cl | 1.18 |

From ChEMBL document CHEMBL1139278 (2009)
